Test results published in ChEMBL document CHEMBL5154832, “Design, Synthesis, and Proof-of-Concept of Triple-Site Inhibitors against Aminoacyl-tRNA Synthetases” (J Med Chem, 2022).
Converted amounts (≈) assume the structure as drawn.

Assays:
[1] = target: T1, Threonine--tRNA ligase (Salmonella enterica) (UniProt A0A3F3IEK2); assay: Inhibition of recombinant salmonella enterica threonyl-tRNA synthetase assessed as reduction in enzyme activity at 10 uM incubated for 20 min by Kinase Glo luminescence assay relative to control
T1 sequence (whole entry): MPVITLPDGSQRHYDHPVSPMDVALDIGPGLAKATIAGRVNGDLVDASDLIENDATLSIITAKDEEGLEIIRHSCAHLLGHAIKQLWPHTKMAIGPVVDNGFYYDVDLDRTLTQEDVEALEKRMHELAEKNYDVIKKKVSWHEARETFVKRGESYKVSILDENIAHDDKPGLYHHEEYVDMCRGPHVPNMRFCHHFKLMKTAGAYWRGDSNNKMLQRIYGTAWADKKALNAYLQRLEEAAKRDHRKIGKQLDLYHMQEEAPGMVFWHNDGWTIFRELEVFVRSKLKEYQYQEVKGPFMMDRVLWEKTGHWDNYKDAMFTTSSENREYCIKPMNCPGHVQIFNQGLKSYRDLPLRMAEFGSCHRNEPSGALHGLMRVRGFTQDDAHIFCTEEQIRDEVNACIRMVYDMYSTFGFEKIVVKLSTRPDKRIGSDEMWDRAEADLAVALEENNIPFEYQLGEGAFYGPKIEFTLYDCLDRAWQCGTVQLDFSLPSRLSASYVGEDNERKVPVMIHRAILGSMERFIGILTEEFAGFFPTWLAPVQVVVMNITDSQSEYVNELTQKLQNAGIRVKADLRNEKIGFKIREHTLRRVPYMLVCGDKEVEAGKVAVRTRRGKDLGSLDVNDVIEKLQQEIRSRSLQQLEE

[2] = target: T1, Threonine--tRNA ligase (Salmonella enterica); assay: Binding affinity to recombinant salmonella enterica threonyl-tRNA synthetase assessed as change in melting temperature at 0.1 mM by fluorescence-based thermal shift assay
Pseudomonas aeruginosa = assay: Antibacterial activity against Pseudomonas aeruginosa ATCC27853 strain assessed as inhibition of bacterial growth incubated for 8 hrs by CLSI protocol based microdilution assay; assay type: functional
Salmonella enterica = assay: Antibacterial activity against Salmonella enterica 87 strain assessed as inhibition of bacterial growth incubated for 8 hrs by CLSI protocol based microdilution assay; assay type: functional
Escherichia coli [3] = assay: Antibacterial activity against Escherichia coli acraB strain assessed as inhibition of bacterial growth incubated for 8 hrs by CLSI protocol based microdilution assay; assay type: functional
Escherichia coli [4] = assay: Antibacterial activity against Escherichia coli ATCC 25922 strain assessed as inhibition of bacterial growth incubated for 8 hrs by CLSI protocol based microdilution assay; assay type: functional
Threonine--tRNA ligase = target: T2, Threonine--tRNA ligase (Salmonella enterica, UniProt A0A3F3IEK2); assay: Inhibition of recombinant salmonella enterica threonyl-tRNA synthetase assessed as reduction in enzyme activity incubated for 20 min by Kinase Glo luminescence assay
T2 sequence (A0A3F3IEK2 whole entry): T1 sequence (whole entry)

Staphylococcus aureus [5] = assay: Antibacterial activity against Staphylococcus aureus MRSA R3708 strain assessed as inhibition of bacterial growth incubated for 8 hrs by CLSI protocol based microdilution assay; assay type: functional
Staphylococcus aureus [6] = assay: Antibacterial activity against Staphylococcus aureus ATCC 29213 strain assessed as inhibition of bacterial growth incubated for 8 hrs by CLSI protocol based microdilution assay; assay type: functional
Enterococcus faecalis = assay: Antibacterial activity against Enterococcus faecalis ATCC 29212 strain assessed as inhibition of bacterial growth incubated for 8 hrs by CLSI protocol based microdilution assay; assay type: functional

inhibition [1] [%] | ΔTm [2] [°C] | MIC (Pseudomonas aeruginosa) [µg/mL] | MIC (Salmonella enterica) [µg/mL] | MIC (Escherichia coli [3]) [µg/mL] | MIC (Escherichia coli [4]) [µg/mL] | IC50 (Threonine--tRNA ligase) [µM] | MIC (Staphylococcus aureus [5]) [µg/mL] | MIC (Staphylococcus aureus [6]) [µg/mL] | MIC (Enterococcus faecalis) [µg/mL] | SMILES
24 | 8.4 |  |  |  |  |  |  |  |  | C[C@@H](O)[C@H](N)C(=O)N[C@H](CNC(=O)CCn1cnc2cc(Br)c(Cl)cc2c1=O)c1cccc(-c2ccc3[nH]ccc3c2)c1
30 | 10.2 |  |  |  |  |  |  |  |  | C[C@@H](O)[C@H](N)C(=O)N[C@H](CNC(=O)CCn1cnc2cc(Br)c(Cl)cc2c1=O)c1cccc(-c2ccc3[nH]ncc3c2)c1
 | 0 |  |  |  |  |  |  |  |  | C[C@@H](O)[C@H](N)C(=O)N(CCCCOC(=O)Cn1cnc2cc(Br)c(Cl)cc2c1=O)Cc1cccc(-c2ccc3c(c2)CNC3=O)c1
 | 4.8 |  |  |  |  |  |  |  |  | C[C@@H](O)[C@H](N)C(=O)N[C@H](CNC(=O)CCn1cnc2cc(Br)c(Cl)cc2c1=O)c1cccc(-c2ccc3ccccc3c2)c1
86 | 17.9 |  |  |  |  | 1.86 |  |  |  | C[C@@H](O)[C@H](N)C(=O)N[C@H](CNC(=O)CCn1cnc2cc(Br)c(Cl)cc2c1=O)c1cccc(-c2ccc3c(c2)CNC3=O)c1
84 | 27.8 | 64 (≈ 90.1 µM) | ≥ 128 | 64 (≈ 90.1 µM) | ≥ 128 | 2.99 | ≥ 128 | ≥ 128 | 64 (≈ 90.1 µM) | C[C@@H](O)[C@H](N)C(=O)N(CCCC(=O)NCCn1cnc2cc(Br)c(Cl)cc2c1=O)Cc1cccc(-c2ccc3c(c2)CNC3=O)c1
> 99 | 28 | ≥ 128 | ≥ 128 | ≥ 128 | ≥ 128 | 0.194 | ≥ 128 | ≥ 128 | ≥ 128 | C[C@@H](O)[C@H](N)C(=O)N[C@@H](CNC(=O)CCn1cnc2cc(Br)c(Cl)cc2c1=O)c1cccc(-c2ccc3[nH]ncc3c2)c1
> 99 | 35.2 | ≥ 128 | ≥ 128 | ≥ 128 | ≥ 128 | 0.48 | ≥ 128 | ≥ 128 | ≥ 128 | C[C@@H](O)[C@H](N)C(=O)N[C@@H](CNC(=O)CCn1cnc2cc(Br)c(Cl)cc2c1=O)c1cccc(-c2ccc3c(N)ncnc3c2)c1
 | 5 |  |  |  |  |  |  |  |  | C[C@@H](O)[C@H](N)C(=O)N[C@H](CNC(=O)CCn1cnc2cc(Cl)c(Cl)cc2c1=O)c1cccc(-c2ccccc2)c1
 | 0 |  |  |  |  |  |  |  |  | C[C@@H](O)[C@H](N)C(=O)N(CCC(=O)N1CCN(CCn2cnc3cc(Br)c(Cl)cc3c2=O)CC1)Cc1cccc(-c2ccc3c(c2)CNC3=O)c1
91 | 22.6 | 32 (≈ 48 µM) | ≥ 128 | 16 (≈ 24 µM) | ≥ 128 | 1.62 | 32 (≈ 48 µM) | 32 (≈ 48 µM) | 32 (≈ 48 µM) | C[C@@H](O)[C@H](N)C(=O)N[C@@H](CNC(=O)CCn1cnc2cc(Br)c(Cl)cc2c1=O)c1cccc(-c2ccc3[nH]ccc3c2)c1
57 | 29.4 |  |  |  |  | 6.63 |  |  |  | C[C@@H](O)[C@H](N)C(=O)N[C@H](CNC(=O)CCn1cnc2cc(Br)c(Cl)cc2c1=O)c1cccc(-c2ccc3c(N)ncnc3c2)c1
11 | 12.1 |  |  |  |  |  |  |  |  | C[C@@H](O)[C@H](N)C(=O)N[C@H](CNC(=O)CCn1cnc2cc(Cl)c(F)cc2c1=O)c1cccc(-c2ccccc2)c1
8 | 7 |  |  |  |  |  |  |  |  | C[C@@H](O)[C@H](N)C(=O)N[C@H](CNC(=O)CCn1cnc2cc(Br)c(Cl)cc2c1=O)c1cccc(-c2ccccc2)c1

SMILES | inhibition [1] [%] | ΔTm [2] [°C] | MIC (Pseudomonas aeruginosa) [µg/mL] | MIC (Salmonella enterica) [µg/mL] | MIC (Escherichia coli [3]) [µg/mL] | MIC (Escherichia coli [4]) [µg/mL] | IC50 (Threonine--tRNA ligase) [µM] | MIC (Staphylococcus aureus [5]) [µg/mL] | MIC (Staphylococcus aureus [6]) [µg/mL] | MIC (Enterococcus faecalis) [µg/mL]
CC1(C)S[C@@H]2[C@H](NC(=O)[C@H](N)c3ccccc3)C(=O)N2[C@H]1C(=O)O [AMPICILLIN] |  |  | 1 (≈ 2.86 µM) | 1 (≈ 2.86 µM) | 1 (≈ 2.86 µM) | 1 (≈ 2.86 µM) |  |  |  | 
